Assay results from US12391737B2, “Soluble NPY2 receptor agonists” (Boehringer Ingelheim International GmbH, priority 2020, dated 2025).

Tests used:
[1] = target: T1, Human Neuropeptide Y2 Receptor (Homo sapiens, UniProt P49146); assay: Radioligand binding competition assay (RLB); conditions: Table 3, 125I-PYY(1-36) competition; read-out: Ki
T1 construct: purchased CHEMICON HTS066M
T1 sequence (P49146 1-381): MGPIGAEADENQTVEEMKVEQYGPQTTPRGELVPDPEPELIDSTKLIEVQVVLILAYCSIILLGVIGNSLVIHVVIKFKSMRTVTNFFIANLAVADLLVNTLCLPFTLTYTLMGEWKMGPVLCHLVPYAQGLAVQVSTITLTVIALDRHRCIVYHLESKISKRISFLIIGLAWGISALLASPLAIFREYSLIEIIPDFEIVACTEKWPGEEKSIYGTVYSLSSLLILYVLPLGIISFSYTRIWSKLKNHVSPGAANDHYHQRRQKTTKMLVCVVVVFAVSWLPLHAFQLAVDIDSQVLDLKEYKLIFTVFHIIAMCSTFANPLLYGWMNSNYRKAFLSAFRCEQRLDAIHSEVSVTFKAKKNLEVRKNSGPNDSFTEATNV
Procedure, shortened: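 Competition binding used membranes expressing the receptor (0.5 μg protein/well) in 50 mM HEPES, 5 mM MgCl2, 1 mM CaCl2, pH 7.4 with 0.2% ovalbumin, incubated 2 h at room temperature with shaking. Bound radioligand was collected by filtration onto PEI-soaked GF/C filters and counted; IC50 from nonlinear sigmoidal fits.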

Solubility determination = conditions: for Sol6: pH 6; for Sol7: pH 7
Procedure, shortened: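 Solubility is derived from the ratio of reversed-phase peak areas, filtered sample over a control dissolved at 1 mg/ml in 50% acetonitrile. Peptides are agitated for 2 hours at room temperature in 0.1 M sodium diphosphate at pH 6.4 or 7.0, aiming at 10 mg/ml.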

SMILES	Ki [1]	Sol6 (Solubility determination)	Sol7 (Solubility determination)
CC(C)CC(=O)N[C@@H](C)C(=O)N1CCC[C@H]1C(=O)N[C@@H](CCC(=O)O)C(=O)N[C@@H](CCCCNC(=O)CCCCCNC(=O)CC[C@H](NC(=O)CCCCCCCCCCCCCCCCC(=O)O)C(=O)O)C(=O)N1CCC[C@H]1C(=O)N[C@@H](CCC(=O)O)C(=O)N[C@@H](CCC(=O)O)C(=O)N[C@@H](CC(=O)O)C(=O)N[C@@H](C)C(=O)N[C@@H](CCC(=O)O)C(=O)N1CCC[C@H]1C(=O)N[C@@H](CCC(=O)O)C(=O)N[C@@H](CCC(=O)O)C(=O)N[C@@H](CC(C)C)C(=O)N[C@@H](CCC(N)=O)C(=O)N[C@@H](CCC(=O)O)C(=O)N[C@@H](Cc1ccc(O)cc1)C(=O)N[C@@H](Cc1ccc(O)cc1)C(=O)N[C@H](C(=O)N[C@@H](CO)C(=O)N[C@@H](CC(C)C)C(=O)N[C@@H](CCCNC(=N)N)C(=O)N[C@@H](Cc1c[nH]cn1)C(=O)N[C@@H](Cc1ccc(O)cc1)C(=O)N[C@@H](Cc1ccc(O)cc1)C(=O)N[C@@H](CC(N)=O)C(=O)N[C@@H](Cc1c[nH]c2ccccc12)C(=O)N[C@@H](CC(C)C)C(=O)N[C@H](C(=O)N[C@@H](CCCNC(=N)N)C(=O)N[C@@H](CCC(N)=O)C(=O)N[C@@H](CCCNC(=N)N)C(=O)N[C@@H](Cc1ccc(O)cc1)C(N)=O)[C@@H](C)O)C(C)C [Compound 138, N{alpha-4}-(3-methylbutanoyl)-N{epsilon-7}-(6-[(4S)-4-carboxy-4-(17-carboxyheptadecanamido)butanamido]hexanoyl)-[4A,7K,9E,13E,18Q,19E,22V,28Y,30W,31L]-hPYY(4-36)]	12.5 nM	9.9 mg/mL	9.5 mg/mL
CC(C)CC(=O)N[C@@H](C)C(=O)N1CCC[C@H]1C(=O)N[C@@H](CCC(=O)O)C(=O)N[C@@H](CCCCNC(=O)CCCCCNC(=O)CC[C@H](NC(=O)CCCCCCCCCCCCCCCCC(=O)O)C(=O)O)C(=O)N1CCC[C@H]1C(=O)N[C@@H](CCC(=O)O)C(=O)N[C@@H](C)C(=O)N[C@@H](C)C(=O)N[C@@H](C)C(=O)N[C@@H](CCC(=O)O)C(=O)N1CCC[C@H]1C(=O)N[C@@H](CCC(=O)O)C(=O)N[C@@H](CCC(=O)O)C(=O)N[C@@H](CC(C)C)C(=O)N[C@@H](CCC(N)=O)C(=O)N[C@@H](CCCNC(=N)N)C(=O)N[C@@H](Cc1ccc(O)cc1)C(=O)N[C@@H](Cc1ccc(O)cc1)C(=O)N[C@H](C(=O)N[C@@H](C)C(=O)N[C@@H](CC(C)C)C(=O)N[C@@H](CCCNC(=N)N)C(=O)N[C@@H](Cc1c[nH]cn1)C(=O)N[C@@H](Cc1ccc(O)cc1)C(=O)N[C@@H](Cc1ccc(O)cc1)C(=O)N[C@@H](CC(N)=O)C(=O)N[C@@H](Cc1c[nH]c2ccccc12)C(=O)N[C@@H](CC(C)C)C(=O)N[C@H](C(=O)N[C@@H](CCCNC(=N)N)C(=O)N[C@@H](CCC(N)=O)C(=O)N[C@@H](CCCNC(=N)N)C(=O)N[C@@H](Cc1ccc(O)cc1)C(N)=O)[C@@H](C)O)C(C)C [Compound 127, N{alpha-4}-(3-methylbutanoyl)-N{epsilon-7}-(6-[(4S)-4-carboxy-4-(17-carboxyheptadecanamido)butanamido]hexanoyl)-[4A,7K,9E,10A,11A,13E,18Q,22V,23A,28Y,30W,31L]-hPYY(4-36)]	3.36 nM	6.5 mg/mL	>10.0 mg/mL
CC(C)CC(=O)N[C@@H](C)C(=O)N1CCC[C@H]1C(=O)N[C@@H](CCC(=O)O)C(=O)N[C@@H](CCCCNC(=O)CCCCCNC(=O)CC[C@H](NC(=O)CCCCCCCCCCCCCCCCC(=O)O)C(=O)O)C(=O)N1CCC[C@H]1C(=O)N[C@@H](CCC(=O)O)C(=O)N[C@@H](CCC(=O)O)C(=O)N[C@@H](CC(=O)O)C(=O)N[C@@H](C)C(=O)N[C@H](C(=O)N1CCC[C@H]1C(=O)N[C@@H](CCC(=O)O)C(=O)N[C@@H](CCC(=O)O)C(=O)N[C@H](C(=O)N[C@@H](CCC(N)=O)C(=O)N[C@@H](CCCNC(=N)N)C(=O)N[C@@H](Cc1ccc(O)cc1)C(=O)N[C@@H](Cc1ccc(O)cc1)C(=O)N[C@H](C(=O)N[C@@H](CO)C(=O)N[C@@H](CC(C)C)C(=O)N[C@@H](CCCNC(=N)N)C(=O)N[C@@H](Cc1c[nH]cn1)C(=O)N[C@@H](Cc1ccc(O)cc1)C(=O)N[C@@H](Cc1ccc(O)cc1)C(=O)N[C@@H](CC(N)=O)C(=O)N[C@@H](Cc1c[nH]c2ccccc12)C(=O)N[C@@H](CC(C)C)C(=O)N[C@H](C(=O)N[C@@H](CCCNC(=N)N)C(=O)N[C@@H](CCC(N)=O)C(=O)N[C@@H](CCCNC(=N)N)C(=O)N[C@@H](Cc1ccc(O)cc1)C(N)=O)[C@@H](C)O)C(C)C)C(C)C)[C@@H](C)O [Compound 58, N{alpha-4}-(3-methylbutanoyl)-N{epsilon-7}-(6-[(4S)-4-carboxy-4-(17-carboxyheptadecanamido)butanamido]hexanoyl)-[4A,7K,9E,13T,17V,18Q,22V,28Y,30W,31L]-hPYY(4-36)]	3.46 nM	8.6 mg/mL	8.8 mg/mL

More lines, now with the values ahead:

Ki [1]	Sol6 (Solubility determination)	Sol7 (Solubility determination)	SMILES
3.65 nM	9.1 mg/mL	8.7 mg/mL	CC(C)CC(=O)N[C@@H](C)C(=O)N1CCC[C@H]1C(=O)N[C@@H](CCC(=O)O)C(=O)N[C@@H](CCCCNC(=O)CCCCCNC(=O)CC[C@H](NC(=O)CCCCCCCCCCCCCCCCC(=O)O)C(=O)O)C(=O)N1CCC[C@H]1C(=O)N[C@@H](CCC(=O)O)C(=O)N[C@@H](CCC(=O)O)C(=O)N[C@@H](CC(=O)O)C(=O)N[C@@H](C)C(=O)N[C@@H](C)C(=O)N1CCC[C@H]1C(=O)N[C@@H](CCC(=O)O)C(=O)N[C@@H](CCC(=O)O)C(=O)N[C@@H](CC(C)C)C(=O)N[C@@H](CCC(N)=O)C(=O)N[C@@H](CCCCN)C(=O)N[C@@H](Cc1ccc(O)cc1)C(=O)N[C@@H](Cc1ccc(O)cc1)C(=O)N[C@H](C(=O)N[C@@H](CO)C(=O)N[C@@H](CC(C)C)C(=O)N[C@@H](CCCNC(=N)N)C(=O)N[C@@H](Cc1c[nH]cn1)C(=O)N[C@@H](Cc1ccc(O)cc1)C(=O)N[C@@H](Cc1ccc(O)cc1)C(=O)N[C@@H](CC(N)=O)C(=O)N[C@@H](Cc1c[nH]c2ccccc12)C(=O)N[C@@H](CC(C)C)C(=O)N[C@H](C(=O)N[C@@H](CCCNC(=N)N)C(=O)N[C@@H](CCC(N)=O)C(=O)N[C@@H](CCCNC(=N)N)C(=O)N[C@@H](Cc1ccc(O)cc1)C(N)=O)[C@@H](C)O)C(C)C [Compound 123, N{alpha-4}-(3-methylbutanoyl)-N{epsilon-7}-(6-[(4S)-4-carboxy-4-(17-carboxyheptadecanamido)butanamido]hexanoyl)-[4A,7K,9E,13A,18Q,19K,22V,28Y,30W,31L]-hPYY(4-36)]
16.3 nM	8.7 mg/mL	8.9 mg/mL	CC(C)CC(=O)N[C@@H](C)C(=O)N1CCC[C@H]1C(=O)N[C@@H](CCC(=O)O)C(=O)N[C@@H](CCCCNC(=O)CCCCCNC(=O)CC[C@H](NC(=O)CCCCCCCCCCCCCCCCC(=O)O)C(=O)O)C(=O)N1CCC[C@H]1C(=O)N[C@@H](CCC(=O)O)C(=O)N[C@@H](CCC(=O)O)C(=O)N[C@@H](CC(=O)O)C(=O)N[C@@H](C)C(=O)N[C@H](C(=O)N1CCC[C@H]1C(=O)N[C@@H](CCC(=O)O)C(=O)N[C@@H](CCC(=O)O)C(=O)N[C@@H](CC(C)C)C(=O)N[C@@H](CCC(N)=O)C(=O)N[C@@H](CCCNC(=N)N)C(=O)N[C@@H](CCC(N)=O)C(=O)N[C@@H](Cc1ccc(O)cc1)C(=O)N[C@H](C(=O)N[C@@H](CO)C(=O)N[C@@H](CC(C)C)C(=O)N[C@@H](CCCNC(=N)N)C(=O)N[C@@H](Cc1c[nH]cn1)C(=O)N[C@@H](Cc1ccc(O)cc1)C(=O)N[C@@H](Cc1ccc(O)cc1)C(=O)N[C@@H](CC(N)=O)C(=O)N[C@@H](Cc1c[nH]c2ccccc12)C(=O)N[C@@H](CC(C)C)C(=O)N[C@H](C(=O)N[C@@H](CCCNC(=N)N)C(=O)N[C@@H](CCC(N)=O)C(=O)N[C@@H](CCCNC(=N)N)C(=O)N[C@@H](Cc1ccc(O)cc1)C(N)=O)[C@@H](C)O)C(C)C)[C@@H](C)O [Compound 88, N{alpha-4}-(3-methylbutanoyl)-N{epsilon-7}-(6-[(4S)-4-carboxy-4-(17-carboxyheptadecanamido)butanamido]hexanoyl)-[4A,7K,9E,13T,18Q,20Q,22V,28Y,30W,31L]-hPYY(4-36)]
5.73 nM	9.3 mg/mL	9.1 mg/mL	CC(C)CC(=O)N[C@@H](C)C(=O)N1CCC[C@H]1C(=O)N[C@@H](CCC(=O)O)C(=O)N[C@@H](CCCCNC(=O)CCCCCNC(=O)CC[C@H](NC(=O)CCCCCCCCCCCCCCCCC(=O)O)C(=O)O)C(=O)N1CCC[C@H]1C(=O)N[C@@H](CCC(=O)O)C(=O)N[C@@H](CCC(=O)O)C(=O)N[C@@H](CC(=O)O)C(=O)N[C@@H](C)C(=O)N[C@H](C(=O)N1CCC[C@H]1C(=O)N[C@@H](CCC(=O)O)C(=O)N[C@@H](CCC(=O)O)C(=O)N[C@@H](CO)C(=O)N[C@@H](CCC(N)=O)C(=O)N[C@@H](CCCNC(=N)N)C(=O)N[C@@H](Cc1ccc(O)cc1)C(=O)N[C@@H](Cc1ccc(O)cc1)C(=O)N[C@H](C(=O)N[C@@H](CO)C(=O)N[C@@H](CC(C)C)C(=O)N[C@@H](CCCNC(=N)N)C(=O)N[C@@H](Cc1c[nH]cn1)C(=O)N[C@@H](Cc1ccc(O)cc1)C(=O)N[C@@H](Cc1ccc(O)cc1)C(=O)N[C@@H](CC(N)=O)C(=O)N[C@@H](Cc1c[nH]c2ccccc12)C(=O)N[C@@H](CC(C)C)C(=O)N[C@H](C(=O)N[C@@H](CCCNC(=N)N)C(=O)N[C@@H](CCC(N)=O)C(=O)N[C@@H](CCCNC(=N)N)C(=O)N[C@@H](Cc1ccc(O)cc1)C(N)=O)[C@@H](C)O)C(C)C)[C@@H](C)O [Compound 119, N{alpha-4}-(3-methylbutanoyl)-N{epsilon-7}-(6-[(4S)-4-carboxy-4-(17-carboxyheptadecanamido)butanamido]hexanoyl)-[4A,7K,9E,13T,17S,18Q,22V,28Y,30W,31L]-hPYY(4-36)]
